molecular target: JAK1 (Homo sapiens (Human), UniProt P23458); experiment: Analysis of JAK1 activity inhibition ability (ADP-Glo Kinase Assay); assay type: biochemical; settings: JAK1 enzyme, ADP-Glo luminescence, ATP 250 uM, IRS-itide substrate, 30° C. 40 minutes; read-out: IC50
Summary of the method: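 JAK1 enzyme, IRS-itide substrate (40 ng/mL) and 250 uM ATP, both as prepared in kinase buffer (Tris-HCl pH 7.5, MgCl2, BSA, DTT), reacted with compound 40 min at 30 °C. ADP formed was detected by ADP-Glo luminescence; IC50 is the concentration giving 50% inhibition versus control.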

JAK1, sequence (P23458 whole entry): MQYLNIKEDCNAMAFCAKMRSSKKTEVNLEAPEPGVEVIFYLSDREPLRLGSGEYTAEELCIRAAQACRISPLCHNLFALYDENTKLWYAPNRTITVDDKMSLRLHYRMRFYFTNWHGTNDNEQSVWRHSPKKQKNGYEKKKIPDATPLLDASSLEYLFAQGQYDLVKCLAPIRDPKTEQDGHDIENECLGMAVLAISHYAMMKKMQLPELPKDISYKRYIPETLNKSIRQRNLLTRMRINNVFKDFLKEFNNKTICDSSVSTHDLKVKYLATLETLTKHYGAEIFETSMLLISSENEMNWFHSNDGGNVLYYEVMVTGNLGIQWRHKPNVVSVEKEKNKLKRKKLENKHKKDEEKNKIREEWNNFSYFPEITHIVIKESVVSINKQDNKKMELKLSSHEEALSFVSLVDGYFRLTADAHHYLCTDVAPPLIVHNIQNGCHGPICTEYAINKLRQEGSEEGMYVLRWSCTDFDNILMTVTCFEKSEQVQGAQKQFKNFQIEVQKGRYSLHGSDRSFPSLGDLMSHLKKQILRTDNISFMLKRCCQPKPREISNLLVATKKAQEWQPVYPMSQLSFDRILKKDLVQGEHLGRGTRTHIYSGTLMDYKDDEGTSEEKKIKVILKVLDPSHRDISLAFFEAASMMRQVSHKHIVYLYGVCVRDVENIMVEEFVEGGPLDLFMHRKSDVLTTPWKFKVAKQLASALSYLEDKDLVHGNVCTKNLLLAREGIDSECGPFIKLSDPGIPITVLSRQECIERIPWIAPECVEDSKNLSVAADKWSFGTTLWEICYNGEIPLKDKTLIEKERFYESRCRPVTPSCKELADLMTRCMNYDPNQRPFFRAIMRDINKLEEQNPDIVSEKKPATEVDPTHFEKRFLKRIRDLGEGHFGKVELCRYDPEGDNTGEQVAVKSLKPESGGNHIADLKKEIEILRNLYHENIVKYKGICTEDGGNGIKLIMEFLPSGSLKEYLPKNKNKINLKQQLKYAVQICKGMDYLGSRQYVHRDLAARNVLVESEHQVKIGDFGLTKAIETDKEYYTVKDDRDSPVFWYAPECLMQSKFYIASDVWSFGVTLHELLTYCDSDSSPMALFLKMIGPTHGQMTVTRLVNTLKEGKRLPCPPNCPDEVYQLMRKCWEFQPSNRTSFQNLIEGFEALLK

SMILES	IC50
O=C(Nc1cc(-c2ccc(NS(=O)(=O)C3CC3)c(-c3ccccc3)c2)c2cc[nH]c2n1)C1CC1 [Example 130, N-(4-(6-(cyclopropanesulfonamido)-[1,1′-biphenyl]-3-yl)-1H-pyrrolo[2,3-b]pyridin-6-yl)cyclopropanecarboxamide]	> 200 nM
N#CCC(=O)N1C=C(c2cc(NC(=O)C3CC3)nc3[nH]ccc23)CCC1 [Example 419, N-(4-(1-(2-cyanoacetyl)-1,4,5,6-tetrahydropyridin-3-yl)-1H-pyrrolo[2,3-b]pyridin-6-yl)cyclopropanecarboxamide]	> 200 nM
N#CCCCS(=O)(=O)Nc1ccc(-c2nc(NC(=O)C3CC3)nc3[nH]cnc23)cc1 [Example 210, N-(6-(4-((3-cyanopropyl)sulfonamido)phenyl)-9H-purin-2-yl)cyclopropanecarboxamide]	> 200 nM
CCc1cc(-c2cc(NC(=O)C3CC3)nc3[nH]ccc23)ccc1NS(=O)(=O)CC [Example 124, N-(4-(3-ethyl-4-(ethylsulfonamido)phenyl)-1H-pyrrolo[2,3-b]pyridin-6-yl)cyclopropanecarboxamide]	< 20 nM
O=C(Nc1cc(C2=CCC(NC3CN(C(=O)c4ccnc(F)c4)C3)CC2)c2cc[nH]c2n1)C1CC1 (centres unmarked) [Example 496, N-(4-(4-((1-(2-fluoroisonicotinoyl)azetidin-3-yl)amino)cyclohex-1-en-1-yl)-1H-pyrrolo[2,3-b]pyridin-6-yl)cyclopropanecarboxamide]	> 200 nM
N#CC1(CS(=O)(=O)Nc2c(F)cc(-c3cc(NC(=O)C4CC4)nc4[nH]ccc34)cc2F)CC1 [Example 107, N-(4-(4-(((1-cyanocyclopropyl)methyl)sulfonamido)-3,5-difluorophenyl)-1H-pyrrolo[2,3-b]pyridin-6-yl)cyclopropanecarboxamide]	20 to 200 nM
O=C(NCC(F)(F)F)C1CC=C(c2cc(NC(=O)C3CC3)nc3[nH]ccc23)CC1 (centres unmarked) [Example 531, 4-(6-(cyclopropanecarboxamido)-1H-pyrrolo[2,3-b]pyridin-4-yl)-N-(2,2,2-trifluoroethyl)cyclohex-3-ene-1-carboxamide]	20 to 200 nM
N#CCCN1CC=C(c2cc(NC(=O)C3CC3)nc3[nH]ccc23)CC1 [Example 486, N-(4-(1-(2-cyanoethyl)-1,2,3,6-tetrahydropyridin-4-yl)-1H-pyrrolo[2,3-b]pyridin-6-yl)cyclopropanecarboxamide]	20 to 200 nM
CC1CN(C(=O)c2ccnc(Cl)c2)CC=C1c1cc(NC(=O)C2CC2)nc2[nH]ccc12 (centres unmarked) [Example 310, N-(4-(1-(2-chloroisonicotinoyl)-3-methyl-1,2,3,6-tetrahydropyridin-4-yl)-1H-pyrrolo[2,3-b]pyridin-6-yl)cyclopropanecarboxamide]	< 20 nM
Cc1cc(NC(=O)CC#N)ccc1-c1cc(NC(=O)C2CC2)nc2[nH]ccc12 [Example 240, N-(4-(4-(2-cyanoacetamido)-2-methylphenyl)-1H-pyrrolo[2,3-b]pyridin-6-yl)cyclopropanecarboxamide]	> 200 nM
CCNC(=S)N1C2CCC1CC(c1cc(NC(=O)C3CC3)nc3[nH]ccc13)C2 (centres unmarked) [Example 657, N-(4-(8-(ethylcarbamothioyl)-8-azabicyclo[3.2.1]octan-3-yl)-1H-pyrrolo[2,3-b]pyridin-6-yl)cyclopropanecarboxamide]	20 to 200 nM
CC1CN(C(=O)OC(C)(C)C)CC=C1c1cc(NC(=O)C2CC2)nc2[nH]ccc12 (centres unmarked) [Example 456, tert-butyl 4-(6-(cyclopropanecarboxamido)-1H-pyrrolo[2,3-b]pyridin-4-yl)-3-methyl-3,6-dihydropyridine-1 (2H)-carboxylate]	> 200 nM
O=C(Nc1cc(N2CC3CCC(C2)N3S(=O)(=O)CCCC(F)(F)F)c2cc[nH]c2n1)C1CC1 [Example 666, N-(4-(8-((4,4,4-trifluorobutyl)sulfonyl)-3,8-diazabicyclo[3.2.1]octan-3-yl)-1H-pyrrolo[2,3-b]pyridin-6-yl)cyclopropanecarboxamide]	> 200 nM
CC1CN(C(=O)c2ccc3c(c2)OCCO3)CC=C1c1cc(NC(=O)C2CC2)nc2[nH]ccc12 (centres unmarked) [Example 325, N-(4-(1-(2,3-dihydrobenzo[b][1,4]dioxine-6-carbonyl)-3-methyl-1,2,3,6-tetrahydropyridin-4-yl)-1H-pyrrolo[2,3-b]pyridin-6-yl)cyclopropanecarboxamide]	20 to 200 nM
CCS(=O)(=O)N1CC(CC#N)(N2CCN(c3cc(NC(=O)C4CC4)nc4[nH]ccc34)CC2)C1 [Example 700, N-(4-(4-(3-(cyanomethyl)-1-(ethylsulfonyl)azetidin-3-yl)piperazin-1-yl)-1H-pyrrolo[2,3-b]pyridin-6-yl)cyclopropanecarboxamide]	> 200 nM
CC(C#N)C(=O)N1CC=C(c2cc(NC(=O)C3CC3)nc3[nH]ccc23)CC1 (centres unmarked) [Example 269, N-(4-(1-(2-cyanopropanoyl)-1,2,3,6-tetrahydropyridin-4-yl)-1H-pyrrolo[2,3-b]pyridin-6-yl)cyclopropanecarboxamide]	< 20 nM

SMILES	IC50
O=C(Nc1cc(C2=CC3CCC(C2)N3C(=O)NCC(F)(F)F)c2cc[nH]c2n1)C1CC1 (centres unmarked) [Example 448, 3-(6-(cyclopropanecarboxamido)-1H-pyrrolo[2,3-b]pyridin-4-yl)-N-(2,2,2-trifluoroethyl)-8-azabicyclo[3.2.1]oct-2-ene-8-carboxamide]	< 20 nM
CN(C)CC(=O)N1CC=C(c2cc(NC(=O)C3CC3)nc3[nH]ccc23)CC1 [Example 281, N-(4-(1-(dimethylglycyl)-1,2,3,6-tetrahydropyridin-4-yl)-1H-pyrrolo[2,3-b]pyridin-6-yl)cyclopropanecarboxamide]	> 200 nM
O=C(Nc1cc(-c2ccc(NS(=O)(=O)C3CC3)cc2C(F)(F)F)c2cc[nH]c2n1)C1CC1 [Example 118, N-(4-(4-(cyclopropanesulfonamido)-2-(trifluoromethyl)phenyl)-1H-pyrrolo[2,3-b]pyridin-6-yl)cyclopropanecarboxamide]	20 to 200 nM
O=C(Nc1cc(-c2ccc(NS(=O)(=O)c3ccc(Cl)cc3)cc2)c2cc[nH]c2n1)C1CC1 [Example 14, N-(4-(4-((4-chlorophenyl)sulfonamido)phenyl)-1H-pyrrolo[2,3-b]pyridin-6-yl)cyclopropanecarboxamide]	< 20 nM
CC1CN(C(=O)c2ccncc2Cl)CC=C1c1cc(NC(=O)C2CC2)nc2[nH]ccc12 (centres unmarked) [Example 376, N-(4-(1-(3-chloroisonicotinoyl)-3-methyl-1,2,3,6-tetrahydropyridin-4-yl)-1H-pyrrolo[2,3-b]pyridin-6-yl)cyclopropanecarboxamide]	20 to 200 nM
CC1CN(C(=O)c2cc3ccccc3o2)CC=C1c1cc(NC(=O)C2CC2)nc2[nH]ccc12 (centres unmarked) [Example 352, N-(4-(1-(benzofuran-2-carbonyl)-3-methyl-1,2,3,6-tetrahydropyridin-4-yl)-1H-pyrrolo[2,3-b]pyridin-6-yl)cyclopropanecarboxamide]	20 to 200 nM
O=C(Nc1cc(C2=CCC(NS(=O)(=O)CCCF)CC2)c2cc[nH]c2n1)C1CC1 (centres unmarked) [Example 159, N-(4-(4-((3-fluoropropyl)sulfonamido)cyclohex-1-en-1-yl)-1H-pyrrolo[2,3-b]pyridin-6-yl)cyclopropanecarboxamide]	< 20 nM
O=C(Nc1nc(-c2ccc(NCc3cccc(F)c3)cc2)c2cc[nH]c2n1)C1CC1 [Example 474, N-(4-(4-((3-fluorobenzyl)amino)phenyl)-7H-pyrrolo[2,3-d]pyrimidin-2-yl)cyclopropanecarboxamide]	< 20 nM
CCS(=O)(=O)Nc1ccc(-c2cc(NC(=O)C3CC3)nc3[nH]ccc23)c(C)c1C [Example 131, N-(4-(4-(ethylsulfonamido)-2,3-dimethylphenyl)-1H-pyrrolo[2,3-b]pyridin-6-yl)cyclopropanecarboxamide]	20 to 200 nM
CCN(CC)S(=O)(=O)Nc1ccc(-c2cc(NC(=O)C3CC3)nc3[nH]ccc23)cc1 [Example 216, N-(4-(4-((N,N-diethylsulfamoyl)amino)phenyl)-1H-pyrrolo[2,3-b]pyridin-6-yl)cyclopropanecarboxamide]	20 to 200 nM
N#CCC(=O)c1ccc(-c2cc(NC(=O)C3CC3)nc3[nH]ccc23)cc1 [Example 519, N-(4-(4-(2-cyanoacetyl)phenyl)-1H-pyrrolo[2,3-b]pyridin-6-yl)cyclopropanecarboxamide]	> 200 nM
CN(C)C(=O)Cc1ccc(-c2cc(NC(=O)C3CC3)nc3[nH]ccc23)cc1 [Example 540, N-(4-(4-(2-(dimethylamino)-2-oxoethyl)phenyl)-1H-pyrrolo[2,3-b]pyridin-6-yl)cyclopropanecarboxamide]	20 to 200 nM
CC1CN(C(=O)c2ccc(NCCN3CCOCC3)c(F)c2)CC=C1c1cc(NC(=O)C2CC2)nc2[nH]ccc12 (centres unmarked) [Example 323, N-(4-(1-(3-fluoro-4-((2-morpholinoethyl)amino)benzoyl)-3-methyl-1,2,3,6-tetrahydropyridin-4-yl)-1H-pyrrolo[2,3-b]pyridin-6-yl)cyclopropanecarboxamide]	> 200 nM
N#CC1CN(C(=O)Cc2ccc(-c3cc(NC(=O)C4CC4)nc4[nH]ccc34)cc2)C1 [Example 568, N-(4-(4-(2-(3-cyanoazetidin-1-yl)-2-oxoethyl)phenyl)-1H-pyrrolo[2,3-b]pyridin-6-yl)cyclopropanecarboxamide]	20 to 200 nM
C[C@@H]1CN(C(=O)c2ccncc2F)CC=C1c1cc(NC(=O)C2CC2)nc2[nH]ccc12 [Example 402, (S)—N-(4-(1-(3-fluoroisonicotinoyl)-3-methyl-1,2,3,6-tetrahydropyridin-4-yl)-1H-pyrrolo[2,3-b]pyridin-6-yl)cyclopropanecarboxamide]	< 20 nM
O=C(Nc1cc(-c2ccc(C3(C(=O)N4CCS(=O)(=O)CC4)CC3)cc2)c2cc[nH]c2n1)C1CC1 [Example 577, N-(4-(4-(1-(1,1-dioxidothiomorpholine-4-carbonyl)cyclopropyl)phenyl)-1H-pyrrolo[2,3-b]pyridin-6-yl)cyclopropanecarboxamide]	20 to 200 nM
